Measurements as given in patent publication US20210228825A1, “METHODS FOR DIAGNOSING BRUGADA SYNDROME USING AN AEROSOL” (InCarda Therapeutics, Inc., priority 2018, published 2021).
Read-outs that look alike come from different tables or passages of the source.

Experiment: Pharmacokinetics analysis in human clinical trial FLE-001, inhalation versus intravenous flecainide, venous plasma
Assay type: in vivo
Settings: healthy adult volunteers, read-out: Peak plasma concentration of flecainide (Cmax)
Protocol: This example describes pharmacokinetics (PK) analysis performed during a human clinical trial (FLE-001) in which inhalation administration of flecainide was tested for safety and compared against intravenous administration of flecainide.
This was an open label non-randomized crossover in a cohort of 6 evaluable healthy adult volunteers. This part of the study consisted of two periods with each subject receiving a total of 2 doses of flecainide, one dose in each period. In Period 1, 3 subjects received flecainide acetate solution by inhalation at the dose level of 30 mg estimated lung total dose (eTLD). and 3 subjects received a single dose of 2 mg/kg (or 150 mg, whichever is less) via a 10 min intravenous (IV) infusion of flecainide (Tambocor™ Injection; approved and used in clinical practice in Australia). In Period 2, the subjects who received flecainide inhalation solution in Period 1 now received a single dose of IV flecainide (2 mg/kg or 150 mg, whichever is less, via a 10 min infusion), while the subjects who received IV flecainide in Period 1 now received flecainide inhalation solution (30 mg eTLD). […] The interpretation is that there was no carry over effect of treatment or other changes in the subjects' vital signs and ECG intervals between the two periods. […]

O=C(NCC1CCCCN1)c1cc(OCC(F)(F)F)ccc1OCC(F)(F)F (centres unmarked) [flecainide]
Cmax (intravenous 2 mg/kg (or 150 mg, whichever is less), 10 min infusion, mean±SD): 749 ± 308 ng/mL
Cmax (inhaled, inhalation of flecainide acetate solution, 30 mg eTLD): 120 ng/mL
